In patent US8003658B2, “Quinazoline derivatives for inhibiting cancer cell growth and method for the preparation thereof” (Hanmi Holdings Co., Ltd., priority 2004, dated 2011) one finds IC50 data, which are given here for 18 compounds.

pIC50: −log10 of the molar value. Like-named read-outs stand apart in the source and are kept apart here. Bounds are passed on as bounds.

One assay relates to A431 (ATCC: CRL-1555). The assay can be described thus: Test of cancer cell growth inhibition (SRB), A431. The following applies: read-out: IC50 A431.
A further assay relates to SK-Br3 (ATCC: HTB-30). The assay can be described thus: Test of cancer cell growth inhibition (SRB), SK-Br3. The following applies: read-out: IC50 SK-Br-3.
The target in assay [1] is EGFR (EGFR type 1 kinase) (Homo sapiens, UniProt P00533). The experiment in a line: Inhibition of EGFR enzyme (fluorescence polarization kinase assay). For orientation: In fluorescence polarisation assays a small probe gives low polarisation when free and higher when bound to something large.
Experimental: 10 μl of EGFR (EGFR type 1 kinase) was added to each well of a 96-well microplate.
The subject of a further assay is SW-620 (ATCC: CCL-227). The experiment in a line: Test of cancer cell growth inhibition (SRB), SW-620. The following applies: read-out: IC50 SW-620.
[2] abbreviates: EGFR overexpressed A431, 72 hours, SRB.
Where [3] appears, read: Erb-B2 overexpressed SK-Br3, 72 hours, SRB.
The mark [4] stands for this setting: read-out: IC50 EGFR, Poly (Glu, Tyr) 4:1 and ATP, 1 hour room temperature, FP readout.
Where [5] appears, read: SW-620 not having overexpressed EGFR and Erb-B2, 72 hours, SRB.

For the compound `C=CC(=O)NCCC(=O)Nc1cc2c(Nc3ccc(OCc4ccccn4)c(Cl)c3)ncnc2cc1OC` [Example 167, N-(2-{4-[3-chloro-4-(pyridin-2-ylmethoxy)-phenylamino]-7-methoxy-quinazolin-6-ylcarbamoyl}-ethyl)-acrylamide], the pIC50 (commonly −log10 of the IC50, conventionally taken in molar units) in the assay on A431 (ATCC: CRL-1555) (Homo sapiens, A-431, 72 h) was 7.77; in the assay on SK-Br3 (ATCC: HTB-30) (Homo sapiens, SK-BR-3, 72 h) it was 8.40; in assay [1], 8.70.
In the case of `C=CC(=O)NCC(=O)Nc1cc2c(Nc3ccc(OCc4cccc(F)c4)c(Cl)c3)ncnc2cc1OC` [Example 211, N-({4-[3-chloro-4-(3-fluoro-benzyloxy)-phenylamino]-7-methoxy-quinazolin-6-ylcarbamoyl}-methyl)-acrylamide], the pIC50 with A431 (ATCC: CRL-1555) (Homo sapiens, A-431, 72 h) is 7.80; with SK-Br3 (ATCC: HTB-30) (Homo sapiens, SK-BR-3, 72 h), 8.22; in assay [1], 8.70.
Regarding `C=CC(=O)NCC(=O)Nc1cc2c(Nc3ccc(OCc4cccc(F)c4)c(Cl)c3)ncnc2cc1OCCOC` [Example 217, N-({4-[3-chloro-4-(3-fluoro-benzyloxy)-phenylamino]-7-(2-methoxyethoxy)-quinazolin-6-ylcarbamoyl}-methyl)-acrylamide], the pIC50 in the assay with A431 (ATCC: CRL-1555) (Homo sapiens, A-431, 72 h) is 7.85; in the assay with SK-Br3 (ATCC: HTB-30) (Homo sapiens, SK-BR-3, 72 h), 8.52; in assay [1], 8.70.
`C=CC(=O)NCCC(=O)N(C)c1ccc2ncnc(Nc3ccc(OCc4cccc(F)c4)c(Cl)c3)c2c1` [Example 139-5, N-[2-({4-[3-chloro-4-(3-fluoro-benzyloxy)-phenylamino]-quinazolin-6-yl}-methyl-carbamoyl)-ethyl]-acrylamide]: the pIC50 was 7.16 in the assay on A431 (ATCC: CRL-1555) (Homo sapiens, A-431, 72 h); 7.33 in the assay with SK-Br3 (ATCC: HTB-30) (Homo sapiens, SK-BR-3, 72 h); 8.30 in assay [1].
On to `C=CC(=O)N(C)CCC(=O)Nc1ccc2ncnc(Nc3ccc(OCc4cccc(F)c4)c(Cl)c3)c2c1` [Example 142-2, N-(2-{4-[3-chloro-4-(3-fluoro-benzyloxy)-phenylamino]-quinazolin-6-ylcarbamoyl}-ethyl)-N-methyl-acrylamide], for which the pIC50 is 7.72 with A431 (ATCC: CRL-1555) (Homo sapiens, A-431, 72 h); 8.40 with SK-Br3 (ATCC: HTB-30) (Homo sapiens, SK-BR-3, 72 h); 8.70 in assay [1].
Take `C=CC(=O)N[C@@H](CC)C(=O)Nc1cc2c(Nc3ccc(OCc4ccccn4)c(Cl)c3)ncnc2cc1OC` [Example 205, (2S)-2-acryloylamino-N-{4-[3-chloro-4-(pyridin-2-ylmethoxy)-phenylamino]-7-methoxy-quinazolin-6-yl}-butyramide]: the pIC50 with A431 (ATCC: CRL-1555) (Homo sapiens, A-431, 72 h) was 7.77; with SK-Br3 (ATCC: HTB-30) (Homo sapiens, SK-BR-3, 72 h), 7.72; in assay [1] it was 8.70.
Consider `CC#CC(=O)N1CCC[C@H]1C(=O)Nc1cc2c(Nc3ccc(OCc4ccccn4)c(Cl)c3)ncnc2cc1OC` [Example 146, (2S)-1-(1-oxo-butyn-2-yl)-pyrrolidine-2-carboxylic acid {4-[3-chloro-4-(pyridin-2-ylmethoxy)-phenylamino]-7-methoxy-quinazolin-6-yl}-amide], for which the pIC50 with A431 (ATCC: CRL-1555) (setting [2]) was 7.49; with SK-Br3 (ATCC: HTB-30) (setting [3]) it was 7.40; in assay [1] (setting [4]), 8.40.
On to `C=CC(=O)N[C@H](C)C(=O)Nc1cc2c(Nc3ccc(OCc4ccccn4)c(Cl)c3)ncnc2cc1OC` [Example 189, (1R)—N-(1-{4-[3-chloro-4-(pyridin-2-ylmethoxy)-phenylamino]-7-methoxy-quinazolin-6-ylcarbamoyl}-ethyl)-acrylamide], for which the pIC50 in the assay on A431 (ATCC: CRL-1555) (Homo sapiens, A-431, 72 h) is 8.05; in the assay on SK-Br3 (ATCC: HTB-30) (Homo sapiens, SK-BR-3, 72 h), 8.70; in assay [1], 9.00.
In the same order, the values of `C=CC(=O)N[C@@H](C)C(=O)Nc1cc2c(Nc3ccc(OCc4ccccn4)c(Cl)c3)ncnc2cc1OCCCN1CCOCC1` [Example 219, (1S)—N-(1-{4-[3-chloro-4-(pyridin-2-ylmethoxy)-phenylamino]-7-(3-morpholin-4-yl-propoxy)-quinazolin-6-ylcarbamoyl}-ethyl)-acrylamide] are 7.77, 8.15 and 8.70.
On the same counts, the results for `C=CC(=O)N[C@H](C)C(=O)Nc1cc2c(Nc3ccc(OCc4ccccn4)c(Cl)c3)ncnc2cc1OCCOC` [Example 208, (1R)—N-(1-{4-[3-chloro-4-(pyridin-2-ylmethoxy)-phenylamino]-7-(2-methoxy-ethoxy)-quinazolin-6-ylcarbamoyl}-ethyl)-acrylamide] are 7.96, 8.52 and 8.70.
Turning to `C=CC(=O)NCC(=O)Nc1cc2c(Nc3ccc(OCc4ccccn4)c(Cl)c3)ncnc2cc1OCCOC` [Example 218, N-({4-[3-chloro-4-(pyridin-2-ylmethoxy)-phenylamino]-7-(2-methoxyethoxy)-quinazolin-6-ylcarbamoyl}-methyl)-acrylamide], the pIC50 in the assay on A431 (ATCC: CRL-1555) (Homo sapiens, A-431, 72 h) was 7.80; in the assay on SK-Br3 (ATCC: HTB-30) (Homo sapiens, SK-BR-3, 72 h), 8.40; in assay [1], 8.70.
With `C=CC(=O)N1CCC[C@H]1C(=O)Nc1ccc2ncnc(Nc3ccc(OCc4cccc(C)n4)c(Cl)c3)c2c1` [Example 147, (2S)-1-acryloyl-pyrrolidine-2-carboxylic acid {4-[3-chloro-4-(6-methyl-pyridin-2-ylmethoxy)-phenylamino]-quinazolin-6-yl}-amide], the pIC50 with A431 (ATCC: CRL-1555) (Homo sapiens, A-431, 72 h) was 7.68; in the assay with SK-Br3 (ATCC: HTB-30) (Homo sapiens, SK-BR-3, 72 h) it was 7.72; in assay [1], 8.70.
`C=CC(=O)N1CCC[C@H]1C(=O)Nc1cc2c(Nc3ccc(OCc4ccccn4)c(Cl)c3)ncnc2cc1OC` [Example 166, (2S)-1-acryloyl-pyrrolidine-2-carboxylic acid {4-[3-chloro-4-(pyridin-2-ylmethoxy)-phenylamino]-7-methoxy-quinazolin-6-yl}-amide]: the values for the pIC50 (in the assay with A431 (ATCC: CRL-1555) (setting [2]); with SK-Br3 (ATCC: HTB-30) (setting [3]); in assay [1]) were 7.57, 8.52 and 8.52, respectively.
On to “(1S)—N-(1-{4-[3-chloro-4-(pyridin-2-ylmethoxy)-phenylamino]-7-methoxy-quinazolin-6-ylcarbamoyl}-ethyl)-acrylamide [Example 216]”, for which the pIC50 in the assay with A431 (ATCC: CRL-1555) (setting [2]) was 7.89; with SK-Br3 (ATCC: HTB-30) (setting [3]) it was 8.10; in assay [1] (setting [4]), 8.70.
For the compound `CC=CC=CC(=O)NCCC(=O)Nc1ccc2ncnc(Nc3ccc(OCc4cccc(F)c4)c(Cl)c3)c2c1` [Example 24, hexa-2,4-dienonylic acid (2-{4-[3-chloro-4-(3-fluoro-benzyloxy)-phenylamino]-quinazolin-6-ylcarbamoyl}-ethyl)-amide], the pIC50 is 6.63 in the assay on A431 (ATCC: CRL-1555) (setting [2]), 6.98 in the assay on SK-Br3 (ATCC: HTB-30) (setting [3]) and under 5.00 in the assay with SW-620 (ATCC: CCL-227) (setting [5]).
Consider `C=CC(=O)N[C@@H](CCSC)C(=O)Nc1ccc2ncnc(Nc3ccc(OCc4cccc(F)c4)c(Cl)c3)c2c1` [Example 9, (2S)-2-acryloylamino-N-{4-[3-chloro-4-(3-fluoro-benzyloxy)-phenylamino]-quinazolin-6-yl}-4-methanesulfanyl-butyramide], for which the pIC50 with A431 (ATCC: CRL-1555) (setting [2]) was 7.22; in the assay on SK-Br3 (ATCC: HTB-30) (setting [3]), 8.15; in the assay with SW-620 (ATCC: CCL-227) (setting [5]), under 5.00.
Consider `CN(C)CC(=O)NCCCC(=O)Nc1ccc2ncnc(Nc3ccc(OCc4cccc(F)c4)c(Cl)c3)c2c1` [Example 104, N-{4-[3-chloro-4-(3-fluoro-benzyloxy)-phenylamino]-quinazolin-6-yl}-4-(2-dimethylamino-acetylamino)-butyramide], for which the pIC50 in the assay on A431 (ATCC: CRL-1555) (Homo sapiens, A-431, 72 h) was 6.60; in the assay on SK-Br3 (ATCC: HTB-30) (Homo sapiens, SK-BR-3, 72 h), 7.66; in the assay with SW-620 (ATCC: CCL-227) (Homo sapiens, SW-620, 72 h), under 5.00.
Take `CSCC(=O)NCCC(=O)Nc1ccc2ncnc(Nc3ccc(OCc4cccc(F)c4)c(Cl)c3)c2c1` [Example 117, N-{4-[3-chloro-4-(3-fluoro-benzyloxy)-phenylamino]-quinazolin-6-yl}-3-(2-methanesulfanyl-acetylamino)-propionamide]: the results for the pIC50 with A431 (ATCC: CRL-1555) (setting [2]), in the assay with SK-Br3 (ATCC: HTB-30) (setting [3]) and with SW-620 (ATCC: CCL-227) (setting [5]) were 6.47, 7.40 and under 5.00, respectively.
